In patent publication US9113629B2, “4-amino-6-(4-substituted-phenyl)-picolinates and 6-amino-2-(4-substituted-phenyl)-pyrimidine-4-carboxylates and their use as herbicides” (DOW AGROSCIENCES LLC, priority 2013, dated 2015):
Where two headings read alike, the source gives them in different places.

Experiments:
[1] = system: Key Grass and Sedge Weeds as well as Grass Crops; assay: Post-emergent Test II herbicidal activity (Table 6); type: in vivo; settings: post-emergence, 336 h; for pest or weed control at 70 g/ha: application rate 70 g ai/ha; for pest or weed control at 140 g/ha: application rate 140 g ai/ha
How it was run: (§1)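 Greenhouse post-emergent assay: seedlings (first/second true leaf) in Metro-Mix 360 were sprayed at 187 L/ha at a top rate plus twofold dilutions down to 1/16×; solvent-blank controls were included. Percent visual injury was read at 14 d.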

[2] = system: Key Broadleaf Weed and Crop Species; assay: Post-emergent Test II herbicidal activity (Table 5); type: in vivo; settings: post-emergence, 336 h, post-emergent, 14 days after application; for pest or weed control at 70 g/ha: 70 g ai/ha; for pest or weed control at 140 g/ha: 140 g ai/ha
How it was run: as §1

[3] = Triticum aestivum, TRZSS (wheat), read-out: Visual Growth Reduction (%) 14 Days After Application, TRZSS
[4] = CYPES: yellow nutsedge (Cyperus esculentus), read-out: Visual Growth Reduction (%) 14 Days After Application, CYPES
[5] = DIGSA: crabgrass (Digitaria sanguinalis), read-out: Visual Growth Reduction (%) 14 Days After Application, DIGSA
[6] = ECHCG: barnyardgrass (Echinochloa crus-galli), read-out: Visual Growth Reduction (%) 14 Days After Application, ECHCG
[7] = ORYSA: rice (Oryza sativa), read-out: Visual Growth Reduction (%) 14 Days After Application, ORYSA
[8] = SETFA: giant foxtail (Setaria faberi), read-out: Visual Growth Reduction (%) 14 Days After Application, SETFA
[9] = SORVU: grain sorghum (Sorghum vulgare), read-out: Visual Growth Reduction (%) 14 Days After Application, SORVU
[10] = ZEAMX: maize, corn (Zea mays), read-out: Visual Growth Reduction (%) 14 Days After Application, ZEAMX
[11] = ABUTH: velvetleaf (Abutilon theophrasti), read-out: Visual Growth Reduction (%) 14 Days After Application ABUTH
[12] = AMARE: redroot pigweed (Amaranthus retroflexus), read-out: Visual Growth Reduction (%) 14 Days After Application AMARE
[13] = BRSNN: oilseed-rape, canola (Brassica napus), read-out: Visual Growth Reduction (%) 14 Days After Application BRSNN
[14] = CHEAL: lambsquarters (Chenopodium album), read-out: Visual Growth Reduction (%) 14 Days After Application CHEAL
[15] = EPHHL: wild poinsettia (Euphorbia heterophylla), read-out: Visual Growth Reduction (%) 14 Days After Application EPHHL
[16] = HELAN: sunflower (Helianthus annuus), read-out: Visual Growth Reduction (%) 14 Days After Application HELAN
[17] = VIOTR: wild pansy (Viola tricolor), read-out: Visual Growth Reduction (%) 14 Days After Application VIOTR

| Compound | pest or weed control at 70 g/ha [1, 3] [%] | pest or weed control at 140 g/ha [1, 3] [%] | pest or weed control at 70 g/ha [1, 4] [%] | pest or weed control at 140 g/ha [1, 4] [%] | pest or weed control at 70 g/ha [1, 5] [%] | pest or weed control at 140 g/ha [1, 5] [%] | pest or weed control at 70 g/ha [1, 6] [%] | pest or weed control at 140 g/ha [1, 6] [%] | pest or weed control at 70 g/ha [1, 7] [%] | pest or weed control at 140 g/ha [1, 7] [%] | pest or weed control at 70 g/ha [1, 8] [%] | pest or weed control at 140 g/ha [1, 8] [%] | pest or weed control at 70 g/ha [1, 9] [%] | pest or weed control at 140 g/ha [1, 9] [%] | pest or weed control at 70 g/ha [1, 10] [%] | pest or weed control at 140 g/ha [1, 10] [%] | pest or weed control at 70 g/ha [2, 11] [%] | pest or weed control at 140 g/ha [2, 11] [%] | pest or weed control at 70 g/ha [2, 12] [%] | pest or weed control at 140 g/ha [2, 12] [%] | also measured |
| --- | --- | --- | --- | --- | --- | --- | --- | --- | --- | --- | --- | --- | --- | --- | --- | --- | --- | --- | --- | --- | --- |
| C=Cc1c(C(=O)O)nc(-c2ccc(C(F)(F)F)c(F)c2F)c(F)c1N [Compound 61] | 30 to 44 | 30 to 44 | 45 to 59 | 45 to 59 | 0 to 29 | 0 to 29 | 45 to 59 | 60 to 74 | 0 to 29 | 0 to 29 | 0 to 29 | 0 to 29 | 45 to 59 | 60 to 74 | 60 to 74 | 60 to 74 | 85 to 94 | 95 to 100 | 95 to 100 | 95 to 100 | pest or weed control at 70 g/ha [2, 13]: 0 to 29%; pest or weed control at 140 g/ha [2, 13]: 0 to 29%; pest or weed control at 70 g/ha [2, 14]: 75 to 84%; pest or weed control at 140 g/ha [2, 14]: 85 to 94%; pest or weed control at 70 g/ha [2, 15]: 95 to 100%; pest or weed control at 140 g/ha [2, 15]: 95 to 100%; pest or weed control at 70 g/ha [2, 16]: 95 to 100%; pest or weed control at 140 g/ha [2, 16]: 95 to 100%; pest or weed control at 70 g/ha [2, 17]: 0 to 29%; pest or weed control at 140 g/ha [2, 17]: 0 to 29% |
| Nc1c(Cl)c(C(=O)O)nc(-c2ccc(I)c(F)c2)c1Cl [Compound 145, 4-Amino-3,5-dichloro-6-(3-fluoro-4-iodophenyl)picolinic acid] | 60 to 74 | 60 to 74 | 45 to 59 | 45 to 59 | 85 to 94 | 85 to 94 | 75 to 84 | 75 to 84 | 0 to 29 | 0 to 29 | 75 to 84 | 75 to 84 | 85 to 94 | 85 to 94 | 75 to 84 | 75 to 84 | 45 to 59 | 60 to 74 | 75 to 84 | 95 to 100 | pest or weed control at 70 g/ha [2, 13]: 95 to 100%; pest or weed control at 140 g/ha [2, 13]: 95 to 100%; pest or weed control at 70 g/ha [2, 14]: 95 to 100%; pest or weed control at 140 g/ha [2, 14]: 95 to 100%; pest or weed control at 70 g/ha [2, 15]: 60 to 74%; pest or weed control at 140 g/ha [2, 15]: 60 to 74%; pest or weed control at 70 g/ha [2, 16]: 95 to 100%; pest or weed control at 140 g/ha [2, 16]: 95 to 100%; pest or weed control at 70 g/ha [2, 17]: 0 to 29%; pest or weed control at 140 g/ha [2, 17]: 0 to 29% |
| C#Cc1ccc(-c2nc(C(=O)OC)c(C=C)c(N)c2F)cc1 [Compound 60, methyl 4-amino-6-(4-ethynylphenyl)-5-fluoro-3-vinylpicolinate] | 0 to 29 | 0 to 29 | 0 to 29 | 0 to 29 | 0 to 29 | 0 to 29 | 0 to 29 | 0 to 29 | 0 to 29 | 0 to 29 | 0 to 29 | 0 to 29 | 0 to 29 | 0 to 29 | 0 to 29 | 0 to 29 | 0 to 29 | 0 to 29 | 0 to 29 | 0 to 29 | pest or weed control at 70 g/ha [2, 13]: 0 to 29%; pest or weed control at 140 g/ha [2, 13]: 0 to 29%; pest or weed control at 70 g/ha [2, 14]: 0 to 29%; pest or weed control at 140 g/ha [2, 14]: 0 to 29%; pest or weed control at 70 g/ha [2, 15]: 0 to 29%; pest or weed control at 140 g/ha [2, 15]: 0 to 29%; pest or weed control at 70 g/ha [2, 16]: 45 to 59%; pest or weed control at 140 g/ha [2, 16]: 75 to 84%; pest or weed control at 70 g/ha [2, 17]: 0 to 29%; pest or weed control at 140 g/ha [2, 17]: 0 to 29% |
